Values quoted from earlier work as cited in patent USRE43327E1, “Hydrophobic polyamine analogs and methods for their use” (Aminex Therapeutics, Inc., priority 2001, dated 2012).

Conditions: amino acid side chain, un-ionized fraction; Wolfenden 1981; cited from earlier work

Row | SMILES | free energy for the transfer from the vapor phase to H2O (hydration potential) [kcal/mol]
1 | [HH] [hydrogen] | 2.39
2 | C [methane] | 1.94
3 | CCCCN [n-butylamine] | -7.00
4 | CCCNC(=N)N [n-propylguanidine] | -14.6
